Results on 15 compounds are retold here after patent US20050282743A1, “Molecular interactions in cells” (Arbor Vita Corporation, priority 2001, published 2005).

Ends that are not written are not given here. Peptide text beside a SMILES is read from it. * marks the point of attachment. Biotin = O=C1N[C@H]2[C@H](CS[C@H]2CCCCC(=O)*)N1

Assay in all cases: G' assay (10 uM PL peptide), results of TABLE 7 and TABLE 12
What all share (type): binding

Assay [1] concerns the target T1, PDZ protein (GST-PDZ fusion) (Homo sapiens, UniProt Q6P0Q8).
T1 construct: made in house; host or cells: E. coli (DH5alpha, BL21 or JM109)
An outline of the steps: (§1)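 Biotinylated PL peptides at 10 uM (vs 20 uM in G^0 assay) bound to GST-PDZ fusions; PDZ protein at 5 ug/ml unless another concentration listed. Bound peptide read as A450 nm, classified 0–5 (0 = A450 0; 5 = A450 >4 repeated).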

Assay [2] has as its system PDZ protein (GST-PDZ fusion). An outline of the steps:
as §1

Assay [3] has as its target T2, PDZ protein (GST-PDZ fusion) (Homo sapiens, UniProt Q12923).
T2 construct: made in house; host or cells: E. coli (DH5alpha, BL21 or JM109)
In a few lines: as §1

Setting [4] is: PDZ KIAA807, PDZ Domain not given.

T1 sequence (Q6P0Q8 whole entry, the tested form may be a part): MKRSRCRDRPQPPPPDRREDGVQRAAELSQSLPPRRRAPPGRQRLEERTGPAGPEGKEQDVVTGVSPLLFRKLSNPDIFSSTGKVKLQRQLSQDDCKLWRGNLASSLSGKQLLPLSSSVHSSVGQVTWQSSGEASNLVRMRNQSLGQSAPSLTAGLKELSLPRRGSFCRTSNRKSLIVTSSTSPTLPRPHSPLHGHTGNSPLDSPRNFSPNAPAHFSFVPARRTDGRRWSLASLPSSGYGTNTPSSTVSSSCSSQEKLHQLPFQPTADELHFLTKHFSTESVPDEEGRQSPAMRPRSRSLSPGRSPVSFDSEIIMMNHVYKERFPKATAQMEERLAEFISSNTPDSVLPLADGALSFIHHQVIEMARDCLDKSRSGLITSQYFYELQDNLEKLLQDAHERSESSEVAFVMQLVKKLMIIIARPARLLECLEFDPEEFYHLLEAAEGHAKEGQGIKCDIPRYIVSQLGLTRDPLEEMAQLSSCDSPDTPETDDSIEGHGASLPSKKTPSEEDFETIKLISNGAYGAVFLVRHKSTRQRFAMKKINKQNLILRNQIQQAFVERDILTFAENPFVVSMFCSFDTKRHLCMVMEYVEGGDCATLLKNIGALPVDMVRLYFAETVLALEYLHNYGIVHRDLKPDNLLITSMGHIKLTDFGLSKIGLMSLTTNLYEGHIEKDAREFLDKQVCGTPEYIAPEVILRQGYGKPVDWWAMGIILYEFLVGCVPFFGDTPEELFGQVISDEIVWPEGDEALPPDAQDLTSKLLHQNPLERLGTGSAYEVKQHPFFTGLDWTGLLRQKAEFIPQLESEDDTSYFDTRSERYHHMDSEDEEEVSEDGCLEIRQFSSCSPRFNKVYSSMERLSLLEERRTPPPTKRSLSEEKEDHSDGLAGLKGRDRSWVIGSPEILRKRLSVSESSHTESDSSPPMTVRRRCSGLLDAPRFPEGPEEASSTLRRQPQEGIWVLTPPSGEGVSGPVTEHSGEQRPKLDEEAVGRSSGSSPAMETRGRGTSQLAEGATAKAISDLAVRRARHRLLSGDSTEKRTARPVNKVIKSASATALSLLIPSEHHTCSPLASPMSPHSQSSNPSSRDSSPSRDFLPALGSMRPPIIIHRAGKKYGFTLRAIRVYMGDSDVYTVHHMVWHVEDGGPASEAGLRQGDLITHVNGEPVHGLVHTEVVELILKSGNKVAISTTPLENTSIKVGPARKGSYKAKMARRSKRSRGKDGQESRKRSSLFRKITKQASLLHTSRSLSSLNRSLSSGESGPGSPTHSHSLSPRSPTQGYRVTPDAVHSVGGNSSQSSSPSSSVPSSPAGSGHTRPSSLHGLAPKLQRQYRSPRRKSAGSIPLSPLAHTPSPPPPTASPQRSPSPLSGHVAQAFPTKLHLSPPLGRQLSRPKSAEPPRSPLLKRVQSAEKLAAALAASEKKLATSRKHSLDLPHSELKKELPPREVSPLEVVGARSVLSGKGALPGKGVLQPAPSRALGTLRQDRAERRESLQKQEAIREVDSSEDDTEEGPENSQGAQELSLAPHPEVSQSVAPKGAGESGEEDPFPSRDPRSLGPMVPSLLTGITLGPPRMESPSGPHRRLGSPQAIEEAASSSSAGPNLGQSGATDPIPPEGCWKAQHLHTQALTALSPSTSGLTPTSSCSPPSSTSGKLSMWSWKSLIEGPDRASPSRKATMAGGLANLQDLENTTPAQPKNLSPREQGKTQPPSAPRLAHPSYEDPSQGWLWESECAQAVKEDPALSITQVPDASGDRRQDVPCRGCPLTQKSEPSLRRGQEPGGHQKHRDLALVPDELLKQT
T2 sequence (Q12923 whole entry, the tested form may be a part): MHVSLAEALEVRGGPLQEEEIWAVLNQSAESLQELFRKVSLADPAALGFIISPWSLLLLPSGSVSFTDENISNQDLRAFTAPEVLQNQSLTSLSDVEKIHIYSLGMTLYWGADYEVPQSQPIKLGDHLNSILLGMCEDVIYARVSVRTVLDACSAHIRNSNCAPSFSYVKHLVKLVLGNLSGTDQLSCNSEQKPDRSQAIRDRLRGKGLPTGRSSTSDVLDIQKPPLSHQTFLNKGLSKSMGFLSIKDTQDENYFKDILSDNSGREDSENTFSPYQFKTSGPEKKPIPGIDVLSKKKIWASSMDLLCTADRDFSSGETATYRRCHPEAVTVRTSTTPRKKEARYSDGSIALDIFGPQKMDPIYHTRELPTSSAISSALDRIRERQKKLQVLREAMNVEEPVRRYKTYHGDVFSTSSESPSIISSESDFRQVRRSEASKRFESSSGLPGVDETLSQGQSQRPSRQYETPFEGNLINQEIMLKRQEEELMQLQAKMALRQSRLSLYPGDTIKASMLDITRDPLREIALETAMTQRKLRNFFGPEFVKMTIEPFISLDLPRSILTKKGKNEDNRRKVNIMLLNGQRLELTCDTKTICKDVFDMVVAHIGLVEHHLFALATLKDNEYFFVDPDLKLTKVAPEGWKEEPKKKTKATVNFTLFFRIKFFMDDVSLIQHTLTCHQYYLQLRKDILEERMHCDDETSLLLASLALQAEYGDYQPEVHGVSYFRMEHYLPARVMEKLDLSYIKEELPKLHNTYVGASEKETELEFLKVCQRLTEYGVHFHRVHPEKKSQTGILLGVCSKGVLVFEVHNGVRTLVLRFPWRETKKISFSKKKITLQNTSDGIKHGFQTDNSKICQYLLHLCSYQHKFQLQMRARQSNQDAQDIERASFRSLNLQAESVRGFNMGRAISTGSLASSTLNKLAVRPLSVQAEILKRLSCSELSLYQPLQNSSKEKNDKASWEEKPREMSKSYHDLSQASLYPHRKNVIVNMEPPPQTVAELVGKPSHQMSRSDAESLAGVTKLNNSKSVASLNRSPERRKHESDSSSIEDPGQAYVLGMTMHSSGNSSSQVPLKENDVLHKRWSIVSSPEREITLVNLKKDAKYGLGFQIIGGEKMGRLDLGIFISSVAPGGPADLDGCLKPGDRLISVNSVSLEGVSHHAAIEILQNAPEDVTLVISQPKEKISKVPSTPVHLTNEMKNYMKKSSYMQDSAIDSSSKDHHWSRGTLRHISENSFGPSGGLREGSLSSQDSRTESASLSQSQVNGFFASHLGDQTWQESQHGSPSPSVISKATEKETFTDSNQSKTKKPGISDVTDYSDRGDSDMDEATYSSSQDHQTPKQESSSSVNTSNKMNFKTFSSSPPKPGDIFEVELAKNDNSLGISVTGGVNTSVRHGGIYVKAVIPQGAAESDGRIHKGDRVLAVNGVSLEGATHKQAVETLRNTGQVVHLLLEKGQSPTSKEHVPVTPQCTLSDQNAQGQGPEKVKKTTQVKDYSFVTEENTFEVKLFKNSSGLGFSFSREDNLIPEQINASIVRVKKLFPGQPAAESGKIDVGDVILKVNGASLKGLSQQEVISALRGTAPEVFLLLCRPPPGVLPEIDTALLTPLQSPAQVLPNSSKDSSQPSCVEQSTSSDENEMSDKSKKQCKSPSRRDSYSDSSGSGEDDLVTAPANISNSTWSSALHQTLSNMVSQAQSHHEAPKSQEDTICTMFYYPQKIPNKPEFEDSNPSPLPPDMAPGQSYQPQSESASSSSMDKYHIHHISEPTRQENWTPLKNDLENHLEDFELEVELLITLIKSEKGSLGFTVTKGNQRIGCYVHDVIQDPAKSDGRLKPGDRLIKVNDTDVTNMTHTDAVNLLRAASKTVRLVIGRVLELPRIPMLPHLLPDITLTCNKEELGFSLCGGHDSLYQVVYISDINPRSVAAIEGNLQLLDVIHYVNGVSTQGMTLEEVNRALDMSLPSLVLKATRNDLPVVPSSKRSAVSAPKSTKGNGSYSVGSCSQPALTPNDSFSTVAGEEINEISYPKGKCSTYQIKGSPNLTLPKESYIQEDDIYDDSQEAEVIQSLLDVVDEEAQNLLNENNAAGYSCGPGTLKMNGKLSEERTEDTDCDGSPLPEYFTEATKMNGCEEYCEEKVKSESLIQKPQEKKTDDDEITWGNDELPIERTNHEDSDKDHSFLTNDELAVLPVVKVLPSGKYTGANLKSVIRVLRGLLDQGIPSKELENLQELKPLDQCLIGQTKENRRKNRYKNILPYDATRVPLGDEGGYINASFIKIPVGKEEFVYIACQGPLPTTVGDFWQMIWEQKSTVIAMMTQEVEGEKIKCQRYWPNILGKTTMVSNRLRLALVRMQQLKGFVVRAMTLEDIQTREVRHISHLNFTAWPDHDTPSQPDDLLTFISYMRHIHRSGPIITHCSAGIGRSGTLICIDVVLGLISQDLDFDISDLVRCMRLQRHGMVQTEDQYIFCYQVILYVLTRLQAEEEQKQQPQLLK

For the compound “LNETTETQRTLLNGDLQTSI (Biotin-LNETTETQRTLLNGDLQTSI) [SSTR2 (somatostatin recepor 2)]”, the Classification in assay [1] (PDZ KIAA0807(S), PDZ Domain 1) is 2 (A450 nm 1-2); in assay [1] (setting [4]) it was 2 (A450 nm 1-2); in assay [2] (PDZ SHANK, PDZ Domain 1), 1 (A450 nm 0-1).
As to `CC(C)C[C@H](NC(=O)[C@H](C)NC(=O)[C@@H](NC(=O)[C@H](CCC(=O)O)NC(=O)[C@H](CCCNC(=N)N)NC(=O)[C@H](CCCNC(=N)N)NC(=O)CNC(=O)[C@H](CCC(N)=O)NC(=O)[C@H](CC(C)C)NC(=O)[C@H](CCCNC(=N)N)NC(=O)CNC(=O)CNC(=O)[C@H](CCCNC(=N)N)NC(=O)[C@H](C)NC(=O)[C@H](CO)NC(=O)[C@H](CCCNC(=N)N)NC(=O)CNC(=O)CNC(=O)[C@H](C)NC(=O)[C@H](C)NC(=O)CCCC[C@@H]1SC[C@@H]2NC(=O)N[C@@H]21)[C@@H](C)O)C(=O)O` [HPV E6 33 (modified)] (Biotin-AAGGRSARGGRLQGRRETAL-OH; C-terminus assumed), the Classification in assay [1] (PDZ KIAA0807(S), PDZ Domain 1) is recorded as 5 (A450 nm of 4 more than 2× repeated); in assay [2] (PDZ BAI-1, PDZ Domain 2) it was 5 (A450 nm of 4 more than 2× repeated); in assay [2] (PDZ BAI-1, PDZ Domain 5), 1 (A450 nm 0-1); in assay [2] (PDZ BAI-1, PDZ Domain 6), 1 (A450 nm 0-1); in assay [2] (PDZ FLJ 00011, PDZ Domain 1), 1 (A450 nm 0-1); in assay [2] (PDZ SHANK, PDZ Domain 1) it was 4 (A450 nm 3-4).
Regarding `CC[C@H](C)[C@H](NC(=O)[C@H](CO)NC(=O)[C@H](CCC(=O)O)NC(=O)[C@H](Cc1ccc(O)cc1)NC(=O)[C@H](CC(=O)O)NC(=O)[C@H](CC(N)=O)NC(=O)[C@H](CCC(=O)O)NC(=O)[C@H](CCCCN)NC(=O)CCCC[C@@H]1SC[C@@H]2NC(=O)N[C@@H]21)C(=O)N[C@@H](CO)C(=O)N[C@@H](CC(=O)O)C(=O)N[C@@H](CC(C)C)C(=O)N[C@@H](CCC(N)=O)C(=O)N[C@@H](CCC(N)=O)C(=O)NCC(=O)N[C@@H](CCCNC(=N)N)C(=O)N[C@@H](CC(=O)O)C(=O)N[C@H](C(=O)N[C@H](C(=O)N[C@@H](CCCNC(=N)N)C(=O)N[C@@H](CC(C)C)C(=O)O)[C@@H](C)O)[C@@H](C)CC` [PAG] (Biotin-KENDYESISDLQQGRDITRL-OH; C-terminus assumed), the Classification in assay [2] (PDZ FLJ 00011, PDZ Domain 1) is 3 (A450 nm 2-3); in assay [2] (PDZ SHANK, PDZ Domain 1), 4 (A450 nm 3-4).
Turning to “KTMPAATYRLLTGQEQPVYL (Biotin-KTMPAATYRLLTGQEQPVYL) [MINT-3]”, the Classification is 1 (A450 nm 0-1) in assay [1] (PDZ KIAA0807(S), PDZ Domain 1); 1 (A450 nm 0-1) in assay [1] (setting [4]); 1 (A450 nm 0-1) in assay [2] (PDZ LIM Protein, PDZ Domain 1).
Regarding “GGGGGSGGGGGSGIESVKI [GLUR2 (glutamate receptor 2-modified)]”, in assay [1] (PDZ KIAA0807(S), PDZ Domain 1), the Classification was 1 (A450 nm 0-1).
For the compound “RNIEEVYVGGKQVVPFSSSV (Biotin-RNIEEVYVGGKQVVPFSSSV) [Nedasin (s-form)]”, the Classification in assay [1] (PDZ KIAA807 (domain not given)) is given as 2 (A450 nm 1-2); in assay [2] (PDZ BAI-1, PDZ Domain 2) it was 1 (A450 nm 0-1); in assay [2] (PDZ BAI-1, PDZ Domain 6), 1 (A450 nm 0-1).
On to “A2AC_HUMAN (Modified) (Biotin-DFRPSFKHILFRRARRGFRQ; not fully specified)”, for which the Classification in assay [3] (PDZ PTPL-1, PDZ Domain 5) is 3 (A450 nm 2-3).
For the compound `CC[C@H](C)[C@H](NC(=O)[C@H](CC(=O)O)NC(=O)[C@H](CCC(=O)O)NC(=O)[C@H](CCCNC(=N)N)NC(=O)[C@@H](NC(=O)CCCC[C@@H]1SC[C@@H]2NC(=O)N[C@@H]21)[C@@H](C)O)C(=O)N[C@@H](Cc1ccc(O)cc1)C(=O)N[C@H](C(=O)N[C@@H](CC(N)=O)C(=O)N[C@@H](Cc1ccc(O)cc1)C(=O)N1CCC[C@H]1C(=O)N[C@H](C(=O)N[C@@H](Cc1ccccc1)C(=O)N[C@@H](CO)C(=O)N[C@@H](CCCNC(=N)N)C(=O)N[C@@H](CCCNC(=N)N)C(=O)N1CCC[C@H]1C(=O)N[C@@H](CCCCN)C(=O)N[C@H](C(=O)N[C@@H](CCCNC(=N)N)C(=O)N[C@H](C(=O)O)C(C)C)[C@@H](C)O)[C@@H](C)O)C(C)C` [DNAM-1] (Biotin-TREDIYVNYPTFSRRPKTRV-OH; C-terminus assumed), the Classification is 3 (A450 nm 2-3) in assay [1] (PDZ KIAA807); 3 (A450 nm 2-3) in assay [1] (PDZ KIAA0807(S), PDZ Domain 1); 5 (A450 nm of 4 more than 2× repeated) in assay [2] (PDZ BAI-1, PDZ Domain 2).
As for `CC[C@H](C)[C@H](NC(=O)[C@H](Cc1c[nH]cn1)NC(=O)[C@H](C)NC(=O)[C@H](C)NC(=O)[C@H](CO)NC(=O)[C@@H]1CCCN1C(=O)[C@H](CCCNC(=N)N)NC(=O)[C@H](CC(=O)O)NC(=O)[C@H](CCCCN)NC(=O)[C@@H]1CCCN1C(=O)[C@H](CC(=O)O)NC(=O)[C@H](CCC(=O)O)NC(=O)CCCC[C@@H]1SC[C@@H]2NC(=O)N[C@@H]21)C(=O)N[C@H](C(=O)N[C@@H](CCC(=O)O)C(=O)N[C@@H](C)C(=O)N[C@@H](CC(C)C)C(=O)N[C@@H](CCC(=O)O)C(=O)N[C@H](C(=O)N[C@@H](CC(=O)O)C(=O)N[C@H](C(=O)O)C(C)C)[C@@H](C)O)C(C)C` [PDZ-binding kinase (PBK)] (Biotin-EDPKDRPSAAHIVEALETDV-OH; C-terminus assumed), the Classification was 4 (A450 nm 3-4) in assay [3] (PDZ PTPL-1, PDZ Domain 2) and 1 (A450 nm 0-1) in assay [2] (PDZ BAI-1, PDZ Domain 3).
As to “ARHRVTSYTSSSVNVSSNL (Biotin-ARHRVTSYTSSSVNVSSNL) [IL-8RB]”, the Classification is 1 (A450 nm 0-1) in assay [2] (PDZ BAI-1, PDZ Domain 2); 1 (A450 nm 0-1) in assay [2] (PDZ BAI-1, PDZ Domain 6); 1 (A450 nm 0-1) in assay [2] (PDZ Novel PDZ, PDZ Domain 2).
In the case of `CC[C@H](C)[C@H](NC(=O)CNC(=O)[C@H](CO)NC(=O)[C@H](Cc1ccccc1)NC(=O)[C@@H](NC(=O)[C@H](CS)NC(=O)CNC(=O)CNC(=O)[C@H](C)NC(=O)[C@@H]1CCCN1C(=O)[C@@H](NC(=O)[C@@H]1CCCN1C(=O)CCCC[C@@H]1SC[C@@H]2NC(=O)N[C@@H]21)[C@@H](C)CC)[C@@H](C)O)C(=O)N[C@@H](Cc1ccccc1)C(=O)N1CCC[C@H]1C(=O)N[C@H](C(=O)N[C@@H](CC(C)C)C(=O)N[C@H](C(=O)N[C@@H](CO)C(=O)N1CCC[C@H]1C(=O)N[C@@H](CC(C)C)C(=O)O)[C@@H](C)O)[C@@H](C)O` [KIA 1481] (Biotin-PIPAGGCTFSGIFPTLTSPL-OH; C-terminus assumed), the Classification is listed as 5 (A450 nm of 4 more than 2× repeated) in assay [1] (PDZ KIAA0807(S), PDZ Domain 1); 5 (A450 nm of 4 more than 2× repeated) in assay [1] (setting [4]); 2 (A450 nm 1-2) in assay [2] (PDZ BAI-1, PDZ Domain 2); 1 (A450 nm 0-1) in assay [2] (PDZ BAI-1, PDZ Domain 4); 3 (A450 nm 2-3) in assay [2] (PDZ BAI-1, PDZ Domain 5); 2 (A450 nm 1-2) in assay [2] (PDZ BAI-1, PDZ Domain 6). Besides, the Classification was 2 (A450 nm 1-2) in assay [2] (PDZ FLJ00011 (also printed FLJ 00011), PDZ Domain 1); 1 (A450 nm 0-1) in assay [2] (PDZ Novel PDZ, PDZ Domain 1); 1 (A450 nm 0-1) in assay [2] (PDZ Novel PDZ, PDZ Domain 2); 5 (A450 nm of 4 more than 2× repeated) in assay [2] (PDZ SHANK, PDZ Domain 1).
For the compound `CC(C)C[C@H](NC(=O)[C@H](CCCNC(=N)N)NC(=O)CNC(=O)CNC(=O)[C@H](CCCNC(=N)N)NC(=O)[C@H](C)NC(=O)[C@@H]1CCCN1C(=O)[C@H](CCCNC(=N)N)NC(=O)CNC(=O)CNC(=O)[C@@H](NC(=O)[C@H](C)NC(=O)CCCC[C@@H]1SC[C@@H]2NC(=O)N[C@@H]21)C(C)C)C(=O)N[C@@H](CCC(N)=O)C(=O)NCC(=O)N[C@@H](CCCNC(=N)N)C(=O)N[C@@H](CCCNC(=N)N)C(=O)N[C@@H](CCC(N)=O)C(=O)N[C@H](C(=O)N[C@@H](CCC(N)=O)C(=O)N[C@H](C(=O)O)C(C)C)[C@@H](C)O` [HPV E6 58 (modified)] (Biotin-AVGGRPARGGRLQGRRQTQV-OH; C-terminus assumed), the Classification was 5 (A450 nm of 4 more than 2× repeated) in assay [1] (PDZ KIAA0807(S), PDZ Domain 1); 5 (A450 nm of 4 more than 2× repeated) in assay [2] (PDZ BAI-1, PDZ Domain 2); 2 (A450 nm 1-2) in assay [2] (PDZ BAI-1, PDZ Domain 3); 2 (A450 nm 1-2) in assay [2] (PDZ BAI-1, PDZ Domain 4); 2 (A450 nm 1-2) in assay [2] (PDZ BAI-1, PDZ Domain 5).
Regarding `CC[C@H](C)[C@H](NC(=O)[C@H](CO)NC(=O)[C@@H](NC(=O)[C@H](Cc1ccccc1)NC(=O)[C@H](CO)NC(=O)CCCC[C@@H]1SC[C@@H]2NC(=O)N[C@@H]21)[C@@H](C)O)C(=O)N[C@@H](CC(C)C)C(=O)N[C@H](C(=O)N[C@@H](CS)C(=O)N[C@@H](Cc1c[nH]cn1)C(=O)N[C@@H](CCC(N)=O)C(=O)N[C@@H](CCCNC(=N)N)C(=O)N[C@@H](CCCNC(=N)N)C(=O)N[C@H](C(=O)N[C@@H](CCC(N)=O)C(=O)N[C@@H](CCCNC(=N)N)C(=O)N[C@@H](CCCCN)C(=O)N[C@@H](CCC(=O)O)C(=O)N[C@H](C(=O)N[C@H](C(=O)N[C@@H](C)C(=O)O)C(C)C)[C@@H](C)O)[C@@H](C)O)[C@@H](C)O` [GluR5-2 (rat)], the Classification in assay [1] (PDZ KIAA0807(S), PDZ Domain 1) is 1 (A450 nm 0-1); in assay [2] (PDZ BAI-1, PDZ Domain 2), 5 (A450 nm of 4 more than 2× repeated).
Take “APC—adenomatous polyposis coli protein (ESSGTQSPKRHSGSYLVTSV)”: the Classification in assay [1] (PDZ KIAA0807(S), PDZ Domain 1) is 1 (A450 nm 0-1); in assay [1] (PDZ KIAA807 (domain not given)), 1 (A450 nm 0-1); in assay [2] (PDZ BAI-1, PDZ Domain 2), 1 (A450 nm 0-1); in assay [2] (PDZ BAI-1, PDZ Domain 5), 1 (A450 nm 0-1); in assay [2] (PDZ FLJ 00011, PDZ Domain 1), 1 (A450 nm 0-1).
As for “QATSRNGHSARQHVVADTEL (Biotin-QATSRNGHSARQHVVADTEL) [CD34]”, the Classification is given as 1 (A450 nm 0-1) in assay [2] (PDZ BAI-1, PDZ Domain 6) and 1 (A450 nm 0-1) in assay [2] (PDZ SHANK, PDZ Domain 1).
